Assay results reported in ChEMBL document CHEMBL3046026, “Evaluation of the curative and protectant activity of fungicides and fungicide-adjuvant mixtures on Phomopsis cane and leaf spot of grape: A controlled environment study” (2007).
The source made the active and inactive calls. No cut-off for these calls is given here.

How the values were obtained:
Diaporthe ampelina [1] = assay: Antifungal activity against Diaporthe ampelina infected grape plant assessed as decrease in lesions on leaf at 0.25 […] a.i./ha treated 3 to 6 hr prior to inoculation followed by 24 hr wetness period measured after 4 weeks relative to control in presence of regulaid; assay type: functional, organism-based
Diaporthe ampelina [2] = assay: Antifungal activity against Diaporthe ampelina infected grape plant assessed as decrease in lesions on leaf at 0.25 […] a.i./ha treated 3 to 6 hr prior to inoculation followed by 24 hr wetness period measured after 4 weeks relative to control; assay type: functional, organism-based
Diaporthe ampelina [3] = assay: Antifungal activity against Diaporthe ampelina infected grape plant assessed as disease severity at internodes at 0.25 […] a.i./ha treated 3 to 6 hr prior to inoculation followed by 24 hr wetness period measured after 4 weeks in presence of regulaid (reference value: 2.9%); assay type: functional
Diaporthe ampelina [4] = assay: (§1) Antifungal activity against Diaporthe ampelina infected grape plant assessed as disease severity at internodes at 0.25 […] a.i./ha incubated for 20 hr prior to treatment with 16 hr wetness period followed by 4 hr of drying period measured after 4 weeks in presence of regulaid (reference value: 7.3%); assay type: functional
Diaporthe ampelina [5] = assay: Antifungal activity against Diaporthe ampelina infected grape plant assessed as decrease in lesions on leaf at 0.25 […] a.i./ha incubated for 24 hr prior to treatment with 20 hr wetness period followed by 4 hr of drying period measured after 4 weeks relative to control in presence of regulaid; assay type: functional, organism-based
Diaporthe ampelina [6] = assay: as §1, with “for 48” for “for 20”, “with 24” for “with 16”, “by 24” for “by 4”, “value: 12.2%)” for “value: 7.3%)”; assay type: functional
Diaporthe ampelina [7] = assay: Antifungal activity against Diaporthe ampelina infected grape plant assessed as decrease in lesions on leaf at 0.25 […] a.i./ha incubated for 20 hr prior to treatment with 16 hr wetness period followed by 4 hr of drying period measured after 4 weeks relative to control in presence of regulaid; assay type: functional, organism-based
Diaporthe ampelina [8] = assay: Antifungal activity against Diaporthe ampelina infected grape plant assessed as re-isolation of mycelium from infected vines at 0.25 […] a.i./ha treated for weeks in presence of regulaid followed by inoculation on medium measured after 72 hr (reference value: 62.5%); assay type: functional
Diaporthe ampelina [9] = assay: Antifungal activity against Diaporthe ampelina infected grape plant assessed as disease severity at internodes at 1.7 m3/ha incubated for 24 hr prior to treatment with 20 hr wetness period followed by 4 hr of drying period measured after 4 weeks in presence of regulaid (reference value: 3.2%); assay type: functional
Diaporthe ampelina [10] = assay: Antifungal activity against Diaporthe ampelina infected grape plant assessed as decrease in lesions on leaf at 0.25 […] a.i./ha incubated for 48 hr prior to treatment with 24 hr wetness period followed by 24 hr of drying period measured after 4 weeks relative to control in presence of regulaid; assay type: functional, organism-based
Diaporthe ampelina [11] = assay: Antifungal activity against Diaporthe ampelina infected grape plant assessed as disease severity at internodes at 0.25 […] a.i./ha treated 3 to 6 hr prior to inoculation followed by 24 hr wetness period measured after 4 weeks (reference value: 2.6%); assay type: functional
Diaporthe ampelina [12] = assay: Antifungal activity against Diaporthe ampelina infected grape plant assessed as disease severity at internodes at 0.25 […] a.i./ha incubated for 24 hr prior to treatment with 20 hr wetness period followed by 4 hr of drying period measured after 4 weeks in presence of regulaid (reference value: 4.7%); assay type: functional
Diaporthe ampelina [13] = assay: Antifungal activity against Diaporthe ampelina infected grape plant assessed as decrease in lesions on leaf at 1.7 m3/ha incubated for 24 hr prior to treatment with 20 hr wetness period followed by 4 hr of drying period measured after 4 weeks relative to control in presence of regulaid; assay type: functional, organism-based

**Q.** How did the Activity (Diaporthe ampelina [1]) turn out when `CO/C=C(/C(=O)OC)c1ccccc1Oc1cc(Oc2ccccc2C#N)ncn1` [AZOXYSTROBIN] was run?
**A.** Active

**Q.** What about the Activity (Diaporthe ampelina [2]) of the same molecule?
**A.** Active

**Q.** And the Activity (Diaporthe ampelina [3])?
**A.** 0.1%

**Q.** And the Activity (Diaporthe ampelina [4])?
**A.** 5.3%

**Q.** What about the Activity (Diaporthe ampelina [5]) of the same molecule?
**A.** inactive

**Q.** What about the Activity (Diaporthe ampelina [6]) of the same molecule?
**A.** 3.7%

**Q.** What about the Activity (Diaporthe ampelina [7]) of the same molecule?
**A.** inactive

**Q.** What about the Activity (Diaporthe ampelina [8]) of the same molecule?
**A.** 8.4%

**Q.** And the Activity (Diaporthe ampelina [9])?
**A.** 3.2%

**Q.** What about the Activity (Diaporthe ampelina [10]) of the same molecule?
**A.** inactive

**Q.** And the Activity (Diaporthe ampelina [11])?
**A.** 0.3%

**Q.** What about the Activity (Diaporthe ampelina [12]) of the same molecule?
**A.** 4.9%

**Q.** What about the Activity (Diaporthe ampelina [13]) of the same molecule?
**A.** inactive
